Results reported in patent US5990136A, “Isoxazoline derivatives useful as antimicrobials” (Pharmacia & Upjohn Company, priority 1997, dated 1999).
Converted amounts (≈) assume the structure as drawn.

Columns and labels:
[1] = tested on: Streptococcus Pneumoniae UC ® No. 9912; assay: In vitro antimicrobial activity (MIC, agar dilution, Mueller Hinton agar), S. pneumoniae UC 9912; format: cell-based; details: UC9912, 35° C., 18 hours, read-out: Minimum inhibitory concentration (MIC), S. p. 9912
Description: (§1) Antimicrobial activity was tested in vitro using the procedure described in National Committee for Clinical Laboratory Standards. Methods for dilution antimicrobial susceptibility tests for bacteria that grow aerobically are disclosed in the third edition of Approved Standard, NCCLS Document M7-A3, Villanova, Pa., 1993. Minimum inhibitory concentration (MIC) values were determined by an agar dilution method (1) in which the test medium was Mueller Hinton agar (MHA; Difco Laboratories, Detroit, Mich.) supplemented with 1% Supplement C (Difco). Serial two-fold dilutions of each compound were prepared using 1.0 ml volumes of sterile distilled water. To each 1.0 ml aliquot was added 9.0 ml of molten agar medium. The drug-supplemented agar was mixed, poured into 15×100 mm petri dishes, and allowed to solidify and dry at room temperature prior to inoculation. The test cultures were grown aerobically overnight at 35° C. on MHA; streptococcal strains were grown on Trypticase Soy Blood Agar Base EH (Difco) supplemented with 5% defibrinated sheep blood (BBL, Becton Dickinson Company, Cockeysville, Md.). Colonies were harvested with a sterile swab, and cell suspensions were prepared in Trypticase Soy Broth (TSB; Becton Dickinson Company) to equal the turbidity of a 0.5 McFarland standard. A 1:19 dilution of the suspension was made in TSB; this diluted suspension constituted the inoculum for the assay. The plates containing the drug-supplemented agar were inoculated with a 0.001 ml drop of the cell suspensions using a Steers replicator (Melrose Machine Shop, Woodlyn, Pa.), yielding approximately 10^4 -10^5 cells per spot. The plates were incubated aerobically at 35° C. for 18 hours and the MIC was read as the lowest concentration of drug that inhibited visible growth of the organism. The growth of a single colony was considered to be negative.

[2] = tested on: Enterococcus faecalis UC ® No. 9217; assay: In vitro antimicrobial activity (MIC, agar dilution, Mueller Hinton agar), E. faecalis UC 9217; format: cell-based; details: UC9217, 35° C., 18 hours, read-out: Minimum inhibitory concentration (MIC), E. f. 9217
Description: as §1

[3] = tested on: Staphylococcus aureus UC ® No. 9213; assay: In vitro antimicrobial activity (MIC, agar dilution, Mueller Hinton agar), S. aureus UC 9213; format: cell-based; details: UC9213, 35° C., 18 hours, read-out: Minimum inhibitory concentration (MIC), S. a. 9213
Description: as §1

S, aureus UC ® No. 9213 = details: Antimicrob. Agents Chemother. 1996 and ICAAC 1995 posters; cited from earlier work

MIC [1] | MIC [2] | MIC [3] | SMILES | potency of U-100592 versus vancomycin in this animal model (S, aureus UC ® No. 9213)
2 mg/L (≈ 5.6 µM) | 8 mg/L (≈ 22.4 µM) | 4 mg/L (≈ 11.2 µM) | CC(=O)NCC1CC(c2ccc(C3=CCN(C(=O)CO)CC3)cc2)=NO1 (stereo not shown) [Example 4, N-[[4,5-Dihydro-3-[4-[1,2,3,6-tetrahydro-1-(hydroxyacetyl)-4-pyridinyl]phenyl]-5-isoxazolyl]methyl]acetamide] | 
2 mg/L (≈ 5.86 µM) | 16 mg/L (≈ 46.9 µM) | 8 mg/L (≈ 23.4 µM) | CC(=O)NCC1CC(c2ccc(C3=CCN(C(C)=O)CC3)cc2)=NO1 (stereo not shown) [Example 7, N-[[4,5-Dihydro-3-[4-[1,2,3,6-tetrahydro-1-(acetyl)-4-pyridinyl]phenyl]-5-isoxazolyl]methyl]acetamide] | 

The remaining lines, values behind:

SMILES | MIC [1] | MIC [2] | MIC [3] | potency of U-100592 versus vancomycin in this animal model (S, aureus UC ® No. 9213)
COc1ccc(-c2ccc(C3=NOC(CNC(C)=O)C3)cc2)ccc1=O (racemic) [Example 1, N-[[4,5-Dihydro-3-[4-(4-methoxy-5-oxo-1,3,6-cycloheptatrien-1-yl)phenyl]-5-isoxazolyl]methyl]acetamide] | 1 mg/L (≈ 2.84 µM) | 4 mg/L (≈ 11.4 µM) | 4 mg/L (≈ 11.4 µM) | 
CC(=O)NC[C@H]1CC(c2ccc(C3=CCN(C(=O)CO)CC3)cc2)=NO1 [Example 5, (R)-N-[[4,5-Dihydro-3-[4-[1,2,3,6-tetrahydro-1-(hydroxyacetyl)-4-pyridinyl]phenyl]-5-isoxazolyl]methyl]acetamide] | 0.5 mg/L (≈ 1.4 µM) | 4 mg/L (≈ 11.2 µM) | 2 mg/L (≈ 5.6 µM) | 
COC(=O)N1CC=C(c2ccc(C3=NOC(CNC(C)=O)C3)cc2)CC1 (stereo not shown) [Example 6, Methyl 4-[4-[5-[(acetylamino)methyl]-4,5-dihydro-3-isoxazolyl]phenyl]-3,6-dihydro-1(2H)-pyridinecarboxylate] | 4 mg/L (≈ 11.2 µM) | 16 mg/L (≈ 44.8 µM) | 16 mg/L (≈ 44.8 µM) | 
CC(=O)NC[C@H]1CC(c2ccc(-c3ccncc3)cc2)=NO1 [Example 8, (R)-N-[[4,5-Dihydro-3-[4-(4-pyridinyl)phenyl]-5-isoxazolyl]methyl]acetamide] | 0.25 mg/L (≈ 0.846 µM) | 2 mg/L (≈ 6.77 µM) | 1 mg/L (≈ 3.39 µM) | 
CC(=O)NC[C@H]1CN(c2ccc(N3CCN(C(=O)CO)CC3)c(F)c2)C(=O)O1 [Example U-100592] |  |  |  | equipotent to vancomycin
